Measurements from patent US7166472B2, “Method for the identification of agents that inhibit or promote cataracts and uses thereof” (The General Hospital Corporation, priority 2000, dated 2007).

How the values were obtained:
Format in all cases: biochemical
[1] = Metal reduction assay, Cu(II) to Cu(I) (BC/BCA indicator); conditions: test compound 10 μM, Cu(II)-glycine 25 μM, PBS pH 7.4, 37° C., dark, one hour
Protocol: Metal Reduction Assays—Assays were performed using a 96-well microtiter plate (Costar, Mass.). Test compounds from the kynurenine pathway (10 μM) or, as a positive control, ascorbic acid (ASC, 10 μM) were co-incubated with either Fe(III)-citrate (25 μM) and the Fe(II) indicator bathophenanthroline disulfonic acid (BP, 250 μM), or Cu(II)-glycine (25 μM) and the Cu(I) indicator bathocuproine disulfonic acid (BC) or bicinchoninic acid (BCA, 250 μM). Incubations were conducted in PBS, pH 7.4, at 37° C. in the dark for one hour. Absorbencies were then measured using a plate reader (SPECTRAmax Plus, Molecular Devices, CA) at the appropriate wavelengths: Fe(II)-BP complex at 535 nm (the known molar absorption coefficient, M535,=22140 M^−1 cm^−1), Cu(I)-BC complex at 483 nm, M483=12250 M^−1cm^−1), or Cu(I)-BCA complex at 562 nm, M562=7700 M^−1cm^−1). In control samples, absorbance from the metal ion and indicator in the absence of test compound and the absorbance of test compound in the presence of metal ions, but in the absence of indicator, were determined. The absorbencies from these controls were deducted from those obtained in the presence of the test compound, metal and indicator to yield the net absorbance (ΔA). Fe(II) or Cu(I) concentrations (μM) were calculated according to the formula: C(μM)=ΔA*10^6/Mλ.
The compounds comprising the kynurenine pathway (FIG. 1) were assayed for their ability to reduce […] and Cu(II) (FIG. 2A). […] Values represent the mean±SD for three independent measurements.

[2] = Hydrogen peroxide assay (DCF fluorometric); conditions: reacting with Cu(II), 37° C., dark
[3] = Hydrogen peroxide assay (DCF fluorometric); conditions: for hydrogen peroxide production: Cu(II) present, dark
Protocol: Hydrogen Peroxide Assay—The fluorometric assay for hydrogen peroxide is based on the dichlorofluorescein diacetate (DCF) method (Molecular Probes, Eugene, Oreg.). The DCF solution (5 mM) in 100% ethanol was deacetylated in the presence of 0.01 M NaOH for 30 minutes and neutralized. Horseradish peroxidase (200 U/ml) was then added and the DCF concentration adjusted to 200 μM in PBS. The reaction solutions were carried out in PBS, pH 7.4, in a 96-well format plate (total volume=300 μL/well) and contained a test compound (KYN, 3-HK, 3-HAA, ANA, or ASC, each at 10 μM), deacetylated DCF (20 μM), and Cu(II)-glycine (1 μM) as indicated, incubated at 37° C. for 60 minutes. […] Abolition of the reading by co-incubation with catalase (1000 U/ml) was used for establishing H2O2 specificity. The fluorescent readings were recorded by a Packard FLURORCOUNT™ fluorescent plate reader with a 485 nm excitation filter and 530 nm emission filter. Concentrations were determined by comparison to a standard curve using reagent grade hydrogen peroxide in CHELEX™ chelating ion exchanae resin-treated PBS buffer, pH 7.4.
Reactions were conducted in the absence of added Cu(II), in the presence of added glycine-complexed Cu(II) (1 μM), in the presence of added glycine-complexed Cu(II) (1 μM) and catalase (1000 U/ml), or with added glycine-complexed Cu(II) (1 μM) and the copper chelator triethylenetetramine (TETA, 200 μM).

SMILES: Nc1c(O)cccc1C(=O)CC(N)C(=O)O (stereo not shown) [3-HK, 3-hydroxykynurenine]
- reduction of Cu(II) [1]: 100%
- time dependence of hydrogen peroxide generation [2]: continuous over five hours
- hydrogen peroxide generated relative to available Cu(II) [3]: approximately 3 fold
- hydrogen peroxide generated ([3]; ambient gas conditions, CHELEX-treated PBS, FIG. 4C): approx. 3 μM
- hydrogen peroxide production ([3]; ambient oxygen tension): 1.49 μM H2O2
- hydrogen peroxide production ([3]; high oxygen tension): 1.84 μM H2O2
- hydrogen peroxide production ([3]; low oxygen tension (continuous argon sparging)): 0.35 μM H2O2
